# Source: patent publication US6617329B2, “Aminoquinazolines and their use as medicaments” (Boehringer Ingelheim Pharma KG, priority 2000, dated 2003)
# Target: T1, human EGF-R (Homo sapiens, UniProt P00533)
# T1 construct: expressed in transfected cells; host or cells: F/L-HERc cells (murine IL-3-dependent FDC-P1 line transduced with LXSN retroviral vector carrying human EGF-R cDNA; packaging line GP+E86)
# Assay: Inhibition of EGF-dependent proliferation of F/L-HERc cells (Cell Titer 96 AQueous assay)
# Format: cell-based
# Conditions: F/L-HERc cells (murine IL-3-dependent line expressing human EGF-R), stimulated with EGF 20 ng/ml, 48 hours at 37° C.
# Excerpt: A cell line of murine origin dependent on interleukin-3-(IL-3) which was genetically modified to express functional human EGF-R was used here. The proliferation of these cells known as F/L-HERc can therefore be stimulated either by murine IL-3 or by EGF (cf. von Rüden, T. et al. in EMBO J. 7, 2749-2756 (1988). and Pierce, J. H. et al. in Science 239, 628-631 (1988)).
# The starting material used for the F/L-HERc cells was the cell line FDC-P1, the production of which has been described by Dexter, T. M. et al. in J. Exp. Med. 152, 1036-1047 (1980). Alternatively, however, other growth-factor-dependent cells may also be used (cf. for example Pierce, J. H. et al. in Science 239, 628-631 (1988), Shibuya, H. et al. in Cell 70, 57-67 (1992) and Alexander, W. S. et al. in EMBO J. 10, 3683-3691 (1991)). For expressing the human EGF-R cDNA (cf. Ullrich, A. et al. in Nature 309, 418-425 (1984)) recombinant retroviruses were used as described by von Rüden, T. et al., EMBO J. 7, 2749-2756 (1988), except that the retroviral vector LXSN (cf. Miller, A. D. et al. in BioTechniques 7, 980-990 (1989)) was used for the expression of the EGF-R cDNA and the line GP+E86 (cf. Markowitz, D. et al. in J. Virol. 62, 1120-1124 (1988)) was used as the packaging cell.
# F/L-HERc cells were cultivated in RPMI/1640 medium (Bio Whittaker), supplemented with 10% foetal calf serum (FCS, Boehringer Mannheim), 2 mM glutamine (Bio Whittaker), standard antibiotics and 20 ng/ml of human EGF (Promega), at 37° C. and 5% CO2. In order to investigate the inhibitory activity of the compounds according to the invention, 1.5×10^4 cells per well were cultivated in triplicate in 96-well dishes in the above medium (200 μl), the cell proliferation being stimulated with either EGF (20 ng/ml) or murine IL-3. The IL-3 used was obtained from culture supernatants of the cell line X63/0 mIL-3 (cf. Karasuyama, H. et al. in Eur. J. Immunol. 18, 97-104 (1988)). The compounds according to the invention were dissolved in 100% dimethylsulphoxide (DMSO) and added to the cultures in various dilutions, the maximum DMSO concentration being 1%. The cultures were incubated for 48 hours at 37° C.
# In order to determine the inhibitory activity of the compounds according to the invention the relative cell number was measured in O.D. units using the Cell Titer 96™ AQueous Non-Radioactive Cell Proliferation Assay (Promega). The relative cell number was calculated as a percentage of the control (F/LHERc cells without inhibitor) and the concentration of active substance which inhibits the proliferation of the cells by 50% (IC50) was derived therefrom.
# T1 sequence (P00533 25-1210): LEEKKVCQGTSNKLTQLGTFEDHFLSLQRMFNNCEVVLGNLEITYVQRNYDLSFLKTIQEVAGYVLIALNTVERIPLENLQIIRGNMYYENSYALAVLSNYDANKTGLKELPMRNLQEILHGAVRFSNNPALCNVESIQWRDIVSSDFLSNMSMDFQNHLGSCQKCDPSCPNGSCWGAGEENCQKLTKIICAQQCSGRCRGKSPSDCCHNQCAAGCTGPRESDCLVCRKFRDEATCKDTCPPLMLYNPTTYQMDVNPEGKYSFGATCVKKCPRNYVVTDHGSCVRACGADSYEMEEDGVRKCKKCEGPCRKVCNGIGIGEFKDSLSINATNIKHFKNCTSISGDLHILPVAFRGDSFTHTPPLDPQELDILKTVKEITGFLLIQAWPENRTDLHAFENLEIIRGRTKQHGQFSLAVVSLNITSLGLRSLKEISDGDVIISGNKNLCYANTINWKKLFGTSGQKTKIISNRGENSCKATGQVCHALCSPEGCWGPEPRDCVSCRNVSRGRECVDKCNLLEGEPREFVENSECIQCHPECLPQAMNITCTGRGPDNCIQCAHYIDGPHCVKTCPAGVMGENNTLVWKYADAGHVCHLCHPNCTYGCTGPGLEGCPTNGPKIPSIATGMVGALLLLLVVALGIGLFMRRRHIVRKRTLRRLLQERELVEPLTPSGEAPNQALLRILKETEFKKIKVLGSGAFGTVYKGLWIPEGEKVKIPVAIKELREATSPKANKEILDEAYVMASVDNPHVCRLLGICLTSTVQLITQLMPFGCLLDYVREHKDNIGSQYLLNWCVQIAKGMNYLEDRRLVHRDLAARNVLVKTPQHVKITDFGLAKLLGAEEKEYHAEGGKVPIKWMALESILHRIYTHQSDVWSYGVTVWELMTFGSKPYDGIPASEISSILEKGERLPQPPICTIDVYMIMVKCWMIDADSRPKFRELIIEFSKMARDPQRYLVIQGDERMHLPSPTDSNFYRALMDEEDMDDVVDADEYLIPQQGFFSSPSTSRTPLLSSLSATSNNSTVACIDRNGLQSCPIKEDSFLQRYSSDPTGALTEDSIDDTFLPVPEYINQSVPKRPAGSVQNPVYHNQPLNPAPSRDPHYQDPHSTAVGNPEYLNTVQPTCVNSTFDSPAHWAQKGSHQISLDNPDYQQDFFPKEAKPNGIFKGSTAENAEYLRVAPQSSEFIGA
row,IC50 [nM],Structure (SMILES)
1,67,"O=C1CC[C@H](CN2CCN(CCOc3cc4ncnc(Nc5ccc(F)c(Cl)c5)c4cc3OC3CCCC3)CC2)O1 [Example 4, 4-[(3-chloro-4-fluorophenyl)amino]-6-cyclopentyloxy-7-(2-{4-[(R)-(2-oxo-tetrahydrofuran-5-yl)methyl]-piperazin-1-yl}-ethoxy)-quinazoline]"
2,11,"O=C1CC(N2CCN(CCOc3cc4ncnc(Nc5ccc(F)c(Cl)c5)c4cc3OC3CCCC3)CC2)CO1 (stereo not shown) [3(1), 4-[(3-chloro-4-fluorophenyl)amino]-6-cyclopentyloxy-7-{2-[4-(2-oxo-tetrahydrofuran-4-yl)-piperazin-1-yl]-ethoxy}-quinazoline]"
3,62,"O=C1CC(N2CCN(CCOc3cc4ncnc(Nc5ccc(F)c(Cl)c5)c4cc3OCC3CCCC3)CC2)CO1 (stereo not shown) [Example 3, 4-[(3-chloro-4-fluorophenyl)amino]-6-cyclopentylmethoxy-7-{2-[4-(2-oxo-tetrahydrofuran-4-yl)-piperazin-1-yl]-ethoxy}-quinazoline]"
4,4,"O=C1OCCC1N1CCN(CCOc2cc3ncnc(Nc4ccc(F)c(Cl)c4)c3cc2OC2CCCC2)CC1 (stereo not shown) [Example 1, 4-[(3-chloro-4-fluorophenyl)amino]-6-cyclopentyloxy-7-{2-[4-(2-oxo-tetrahydrofuran-3-yl)-piperazin-1-yl]-ethoxy}-quinazoline]"
